According to patent US8183262B2, “Pyridine derivatives as mGluR2 antagonists” (Hoffmann-La Roche Inc., priority 2007, dated 2012):

| SMILES | melting point |
| --- | --- |
| Cc1cc(-c2ccc(C(F)(F)F)cc2)cc(-c2ccnc(-c3cccc(S(=O)(=O)NC(C)(C)C)c3)n2)n1 [Example 262, N-tert-Butyl-3-{4-[6-methyl-4-(4-trifluoromethyl-phenyl)-pyridin-2-yl]-pyrimidin-2-yl}-benzenesulfonamide] | 218 °C |
| NS(=O)(=O)c1cccc(-c2cccc(-c3nc(-c4ccc(C(F)(F)F)cc4)cc(C(F)(F)F)n3)n2)c1 [Example 364, 3-{6-[4-Trifluoromethyl-6-(4-trifluoromethyl-phenyl)-pyrimidin-2-yl]-pyridin-2-yl}-benzenesulfonamide] | 244 °C (dec.) |
| Nc1ccc(-c2cccc(-c3cc(-c4ccc(C(F)(F)F)cc4)cc(C4CC4)n3)c2)cn1 [Example 64, 5-{3-[6-Cyclopropyl-4-(4-trifluoromethyl-phenyl)-pyridin-2-yl]-phenyl}-pyridin-2-ylamine] | 130 to 135 °C |
| CC(C)CN(C)S(=O)(=O)c1cccc(-c2cc(-c3nc(-c4ccc(C(F)(F)F)cc4)cc(C(F)(F)F)n3)ccn2)c1 [Example 403, N-Isobutyl-N-methyl-3-{4-[4-trifluoromethyl-6-(4-trifluoromethyl-phenyl)-pyrimidin-2-yl]-pyridin-2-yl}-benzenesulfonamide] | 144 °C |
| NS(=O)(=O)c1cccc(-c2cccc(-c3nc(-c4ccc(Cl)cc4Cl)cc(C(F)(F)F)n3)c2)c1 [Example 410, 3′-[4-(2,4-Dichloro-phenyl)-6-trifluoromethyl-pyrimidin-2-yl]-biphenyl-3-sulfonic acid amide] | 202 °C |
| Nc1ccc(-c2cncc(-c3cc(-c4ccc(C(F)(F)F)cc4)cc(C4CC4)n3)c2)cn1 [Example 69, 6-Cyclopropyl-4-(4-trifluoromethyl-phenyl)-[2,3′;5′,3″]terpyridin-6″-ylamine] | 207 to 209 °C |
| Cc1cc(-c2ccc(C(F)(F)F)cc2)cc(-c2cc(-c3ccc(N)nc3)cs2)n1 [Example 256, 5-{5-[6-Methyl-4-(4-trifluoromethyl-phenyl)-pyridin-2-yl]-thiophen-3-yl}-pyridin-2-ylamine] | 175 °C |
| CC(C)c1cc(-c2ccc(C(F)(F)F)cc2)nc(-n2cnc(-c3cnc(N)nc3)c2)n1 [Example 153, 5-{1-[4-Isopropyl-6-(4-trifluoromethyl-phenyl)-pyrimidin-2-yl]-1H-imidazol-4-yl}-pyrimidin-2-ylamine] | 277 °C |
| Cc1cc(-c2ccc(C(F)(F)F)cc2)nc(-c2ccnc(-c3cccc(S(N)(=O)=O)c3)n2)c1 [Example 308, 3-{4-[4-Methyl-6-(4-trifluoromethyl-phenyl)-pyridin-2-yl]-pyrimidin-2-yl}-benzenesulfonamide] | > 250 °C |
| NS(=O)(=O)c1ccc(-c2cc(-c3nc(-c4ccc(F)c(F)c4)cc(C(F)(F)F)n3)ccn2)s1 [Example 399, 5-{4-[4-(3,4-Difluoro-phenyl)-6-trifluoromethyl-pyrimidin-2-yl]-pyridin-2-yl}-thiophene-2-sulfonic acid amide] | 281 °C |
| NS(=O)(=O)c1cccc(-c2cn(-c3cc(-c4ccc(C(F)(F)F)cc4)cc(C(F)(F)F)n3)cn2)c1 [Example 296, 3-{1-[6-Trifluoromethyl-4-(4-trifluoromethyl-phenyl)-pyridin-2-yl]-1H-imidazol-4-yl}-benzenesulfonamide] | > 250 °C |
| O=S(=O)(NC1CC1)c1cccc(-c2cc(-c3nc(-c4ccc(C(F)(F)F)cc4)cc(C(F)(F)F)n3)ccn2)c1 [Example 409, N-Cyclopropyl-3-{4-[4-trifluoromethyl-6-(4-trifluoromethyl-phenyl)-pyrimidin-2-yl]-pyridin-2-yl}-benzenesulfonamide] | 195.5 °C |
| CC(C)(C)NS(=O)(=O)c1ccc(-c2cccc(-c3nc(-c4ccc(Cl)cc4)cc(C(F)(F)F)n3)c2)s1 [Example 169, 5-{3-[4-(4-Chloro-phenyl)-6-trifluoromethyl-pyrimidin-2-yl]-phenyl}-thiophene-2-sulfonic acid tert-butylamide] | 197.5 °C |
| Clc1ccc(-c2cc(C3CC3)nc(-n3cnc(-c4cccnc4)c3)n2)cc1 [Example 50, 4-(4-Chloro-phenyl)-6-cyclopropyl-2-(4-pyridin-3-yl-imidazol-1-yl)-pyrimidine] | 180 to 182 °C |
| Cc1cc(-c2ccc(C(F)(F)F)cc2)cc(-c2cccc(-c3cccc(NS(=O)(=O)N4CCOCC4)c3)n2)n1 [Example 351, Morpholine-4-sulfonic acid {3-[6′-methyl-4′-(4-trifluoromethyl-phenyl)-[2,2′]bipyridinyl-6-yl]-phenyl}-amide] | 191 °C |
| Cc1cc(-c2ccc(C(F)(F)F)cc2)cc(-c2ccnc(-c3cccc(S(=O)(=O)NC(C)(C)C)c3)c2)n1 [Example 287, N-tert-Butyl-3-[6-methyl-4-(4-trifluoromethyl-phenyl)-[2,4′]bipyridinyl-2′-yl]-benzenesulfonamide] | 189 °C |
| Cc1cc(-c2ccc(C(F)(F)F)c(C)c2)nc(-c2cccc(-c3ccc(S(N)(=O)=O)s3)c2)n1 [Example 417, 5-{3-[4-Methyl-6-(3-methyl-4-trifluoromethyl-phenyl)-pyrimidin-2-yl]-phenyl}-thiophene-2-sulfonic acid amide] | 242 °C |

| SMILES | melting point |
| --- | --- |
| CCc1cc(-c2ccc(C(F)(F)F)cc2)cc(-c2cccc(-c3cccc(S(=O)(=O)NC(C)(C)C)c3)c2)n1 [Example 265, 3′-[6-Ethyl-4-(4-trifluoromethyl-phenyl)-pyridin-2-yl]-biphenyl-3-sulfonic acid tert-butylamide] | 169 °C |
| NS(=O)(=O)c1cnc(-c2cn(-c3cc(C(F)(F)F)cc(-c4ccc(C(F)(F)F)cc4)n3)cn2)s1 [Example 284, 2-{1-[4-Trifluoromethyl-6-(4-trifluoromethyl-phenyl)-pyridin-2-yl]-1H-imidazol-4-yl}-thiazole-5-sulfonic acid amide] | > 266 °C |
| Cc1cc(-c2ccc(C(F)(F)F)cc2)cc(-c2ccnc(-c3cccc(S(=O)(=O)NCCO)c3)c2)n1 [Example 348, N-(2-Hydroxy-ethyl)-3-[6-methyl-4-(4-trifluoromethyl-phenyl)-[2,4′]bipyridinyl-2′-yl]-benzenesulfonamide] | 103 °C (dec.) |
| Nc1ccc(-c2cc(-c3nc(-c4ccc(Cl)cc4)cc(C(F)(F)F)n3)ccn2)cn1 [Example 30, 4-[4-(4-Chloro-phenyl)-6-trifluoromethyl-pyrimidin-2-yl]-[2,3′]bipyridinyl-6′-ylamine] | 227 °C |
| NS(=O)(=O)c1cccc(-c2cn(-c3nc(-c4ccc(C(F)(F)F)cc4)cc(C(F)(F)F)n3)cn2)c1 [Example 160, 3-{1-[4-Trifluoromethyl-6-(4-trifluoromethyl-phenyl)-pyrimidin-2-yl]-1H-imidazol-4-yl}-benzenesulfonamide] | 198 °C |
| COc1cc(-c2cc(C)nc(-c3ccnc(-c4cccc(S(=O)(=O)NC(C)(C)C)c4)c3)c2)ccc1C(F)(F)F [Example 336, N-tert-Butyl-3-[4-(3-methoxy-4-trifluoromethyl-phenyl)-6-methyl-[2,4′]bipyridinyl-2′-yl]-benzenesulfonamide] | 189 °C |
| Nc1ccc(-c2nc(-c3nc(-c4ccc(C(F)(F)F)cc4)cc(C(F)(F)F)n3)no2)cn1 [Example 21, 5-{3-[4-Trifluoromethyl-6-(4-trifluoromethyl-phenyl)-pyrimidin-2-yl]-[1,2,4]oxadiazol-5-yl}-pyridin-2-ylamine] | 205 °C |
| NS(=O)(=O)c1ccc(-c2cn(-c3nc(-c4ccc(Cl)cc4)cc(C(F)(F)F)n3)cn2)cc1 [Example 175, 4-{1-[4-(4-Chloro-phenyl)-6-trifluoromethyl-pyrimidin-2-yl]-1H-imidazol-4-yl}-benzenesulfonamide] | 324 °C |
| NS(=O)(=O)c1cccc(-c2cccc(-c3cc(C(F)(F)F)cc(-c4ccc(C(F)(F)F)cc4)n3)c2)c1 [Example 83, 3′-[4-Trifluoromethyl-6-(4-trifluoromethyl-phenyl)-pyridin-2-yl]-biphenyl-3-sulfonic acid amide] | 176 to 179 °C |
| Cc1cc(-c2ccc(C(F)(F)F)cc2)cc(-c2ccnc(-c3cccc(N)c3)c2)n1 [Example 307, 3-[6-Methyl-4-(4-trifluoromethyl-phenyl)-[2,4′]bipyridinyl-2′-yl]-phenylamine] | 162 °C (dec.) |
| FC(F)(F)c1cc(-c2ccc(Cl)cc2)nc(-c2ccnc(-c3ccncc3)c2)n1 [Example 86, 4-[4-(4-Chloro-phenyl)-6-trifluoromethyl-pyrimidin-2-yl]-[2,4′]bipyridinyl] | 193 °C |
| Cc1cc(-c2cc(C(F)(F)F)nc(-n3cnc(-c4cnc(N)nc4)c3)n2)ccc1C(F)(F)F [Example 125, 5-{1-[4-(3-Methyl-4-trifluoromethyl-phenyl)-6-trifluoromethyl-pyrimidin-2-yl]-1H-imidazol-4-yl}-pyrimidin-2-ylamine] | 297 °C |
| Cc1cc(-c2ccc(Cl)cc2)nc(-c2ccnc(-c3ccc(N)nc3)c2)n1 [Example 112, 4-[4-(4-Chloro-phenyl)-6-methyl-pyrimidin-2-yl]-[2,3′]bipyridinyl-6′-ylamine] | 199 °C |
| Cc1cc(-c2ccc(C(F)(F)F)cc2)nc(-c2cccc(-c3ccc(S(N)(=O)=O)s3)c2)n1 [Example 172, 5-{3-[4-Methyl-6-(4-trifluoromethyl-phenyl)-pyrimidin-2-yl]-phenyl}-thiophene-2-sulfonic acid amide] | 225 °C |
| NS(=O)(=O)c1cccc(-c2noc(-c3nc(-c4ccc(C(F)(F)F)cc4)cc(C(F)F)n3)n2)c1 [Example 40, 3-{5-[4-Difluoromethyl-6-(4-trifluoromethyl-phenyl)-pyrimidin-2-yl]-[1,2,4]oxadiazol-3-yl}-benzenesulfonamide] | 217.5 °C |
| Cc1cc(-c2ccc(C(F)(F)F)cc2)cc(-c2ccnc(-c3cccc(S(N)(=O)=O)c3)c2)n1 [Example 289, 3-[6-Methyl-4-(4-trifluoromethyl-phenyl)-[2,4′]bipyridinyl-2′-yl]-benzenesulfonamide] | > 250 °C |
| Cc1cc(-c2ccc(Cl)c(C)c2)nc(-c2cccc(-c3ccc(S(N)(=O)=O)s3)c2)n1 [Example 380, 5-{3-[4-(4-Chloro-3-methyl-phenyl)-6-methyl-pyrimidin-2-yl]-phenyl}-thiophene-2-sulfonic acid amide] | 240 °C |
